Reference: ChEMBL document CHEMBL1132895, “Immunomodulatory activity of hexapeptides related to proline rich peptide from colostrum” (2000)
Non-standard residues stand in square brackets, D forms with d. Residues, ends and D or L forms follow the SMILES beside them. Nva = CCC[C@H](N)C(=O)O; Sar = CNCC(=O)O

Experiments:
Format in all cases: functional
Mus musculus [1] = species on record: Mus musculus; experiment: Compound (0.01 ug/mL) was tested for their immunomodulatory activity in vitro using lymphocyte transformation test
Mus musculus [2] = species on record: Mus musculus; experiment: Compound (0.10 ug/mL) was tested for their immunomodulatory activity in vitro using mixed lymphocyte reaction
Mus musculus [3] = species on record: Mus musculus; experiment: Compound (10 ug/mL) was tested for their immunomodulatory activity in vitro using mixed lymphocyte reaction
Mus musculus [4] = species on record: Mus musculus; experiment: Compound (10 ug/mL) was tested for their immunomodulatory activity in vitro using lymphocyte transformation test
Mus musculus [5] = species on record: Mus musculus; experiment: Compound (1.0 ug/mL) was tested for their immunomodulatory activity in vitro using lymphocyte transformation test
Mus musculus [6] = species on record: Mus musculus; experiment: Compound (0.01 ug/mL) was tested for their immunomodulatory activity in vitro using mixed lymphocyte reaction
Mus musculus [7] = species on record: Mus musculus; experiment: Compound (1.0 ug/mL) was tested for their immunomodulatory activity in vitro using mixed lymphocyte reaction
Mus musculus [8] = species on record: Mus musculus; experiment: Compound (0.10 ug/mL) was tested for their immunomodulatory activity in vitro using lymphocyte transformation test

Compound | Stimulation index (Mus musculus [1]) | Stimulation index (Mus musculus [2]) | Stimulation index (Mus musculus [3]) | Stimulation index (Mus musculus [4]) | Stimulation index (Mus musculus [5]) | Stimulation index (Mus musculus [6]) | Stimulation index (Mus musculus [7]) | Stimulation index (Mus musculus [8])
CC(C)[C@H](NC(=O)[C@@H](N)Cc1ccc(O)cc1)C(=O)N1CCC[C@H]1C(=O)NCC(=O)N[C@@H](Cc1ccccc1)C(=O)N1CCC[C@H]1C(=O)O | 1.13 | 0.79 | 1 | 0.75 | 1.02 | 0.72 | 0.85 | 1.05
CC(C)[C@H](NC(=O)[C@@H](N)Cc1ccc(O)cc1)C(=O)N1CCC[C@H]1C(=O)NCC(=O)N[C@@H](Cc1ccccc1)C(=O)N(C)CC(=O)O (H-YVPGF[Sar]-OH) | 0.83 | 0.8 | 0.92 | 1.6 | 1.9 | 0.71 | 0.72 | 0.61
CC(C)C[C@H](NC(=O)[C@@H]1CCCN1C(=O)[C@@H](NC(=O)[C@@H](N)Cc1ccc(O)cc1)C(C)C)C(=O)N[C@@H](Cc1ccccc1)C(=O)N(C)CC(=O)O (H-YVPLF[Sar]-OH) | 0.9 |  |  | 1.2 | 1.21 |  |  | 0.86
CC(C)[C@H](NC(=O)[C@@H](N)Cc1ccc(O)cc1)C(=O)N1CCC[C@H]1C(=O)N(C)CC(=O)N[C@@H](Cc1ccccc1)C(=O)N1CCC[C@H]1C(=O)O (H-YVP[Sar]FP-OH) | 1.41 |  |  | 0.96 | 1.37 |  |  | 1.21
CCC[C@H](NC(=O)[C@@H](N)Cc1ccc(O)cc1)C(=O)N1CCC[C@H]1C(=O)NCC(=O)N[C@@H](Cc1ccccc1)C(=O)N1CCC[C@H]1C(=O)O (H-Y[Nva]PGFP-OH) | 0.86 |  |  | 0.73 | 1.15 |  |  | 1.06
CC(C)C[C@H](NC(=O)CN(C)C(=O)[C@@H](NC(=O)[C@@H](N)Cc1ccc(O)cc1)C(C)C)C(=O)N[C@@H](Cc1ccccc1)C(=O)N1CCCC1C(=O)O (single isomer, unassigned) | 0.88 |  |  | 1.12 | 1.24 |  |  | 0.97
C[C@]12C=CC(=O)C=C1CCC1[C@@H]2[C@@H](O)C[C@@]2(C)[C@H]1CC[C@]2(O)C(=O)CO (single isomer, unassigned) [PREDNISOLONE] |  | 0.3 |  |  |  |  |  | 
CC(C)C[C@H](NC(=O)C1CCCN1C(=O)[C@@H](NC(=O)C(N)Cc1ccc(O)cc1)C(C)C)C(=O)N[C@@H](Cc1ccccc1)C(=O)N1CCCC1C(=O)O (single isomer, unassigned; form 1) | 1.1 |  |  | 0.82 | 0.88 |  |  | 1.08
CC(C)[C@H](NC(=O)[C@@H](N)Cc1ccc(O)cc1)C(=O)N1CCCC1C(=O)NCC(=O)NC(Cc1ccccc1)C(=O)N1CCCC1C(=O)O (single isomer, unassigned; form 1) | 0.89 |  |  | 1.05 | 0.96 |  |  | 1.02
CC(C)C[C@H](NC(=O)C1CCCN1C(=O)[C@@H](NC(=O)C(N)Cc1ccc(O)cc1)C(C)C)C(=O)N[C@@H](Cc1ccccc1)C(=O)N1CCCC1C(=O)O (single isomer, unassigned; form 2) | 0.78 |  |  | 0.95 | 1.27 |  |  | 0.86
CC(C)[C@H](NC(=O)[C@@H](N)Cc1ccc(O)cc1)C(=O)N1CCCC1C(=O)NCC(=O)NC(Cc1ccccc1)C(=O)N1CCCC1C(=O)O (single isomer, unassigned; form 2) | 0.97 | 0.9 | 1 | 1.4 | 1.17 | 0.96 | 1.31 | 1.29
H-YLPGFP-OH | 0.75 | 0.5 | 1.24 | 0.59 | 0.62 | 0.63 | 1.2 | 0.64
H-YVPGFP-NH2 | 0.83 |  |  | 0.84 | 1.1 |  |  | 0.85
